From patent US20240066027A1 (DOMAIN THERAPEUTICS, priority 2020, published 2024) come the findings set out here.

One may read the IC50 as the concentration that inhibits the measured activity by half.

Where only a bound is given, the exact number is not on record here.

The target of this test is T1, human PAR-2 (hPAR-2) receptor expressed in HEK-293 T cells in an endogenous manner (Homo sapiens, UniProt P55085).
T1 construct: human PAR-2 (hPAR-2) receptor expressed in HEK-293 T cells in an endogenous manner; endogenous in cells; host or cells: HEK-293 T cells
T1 sequence (P55085 26-397): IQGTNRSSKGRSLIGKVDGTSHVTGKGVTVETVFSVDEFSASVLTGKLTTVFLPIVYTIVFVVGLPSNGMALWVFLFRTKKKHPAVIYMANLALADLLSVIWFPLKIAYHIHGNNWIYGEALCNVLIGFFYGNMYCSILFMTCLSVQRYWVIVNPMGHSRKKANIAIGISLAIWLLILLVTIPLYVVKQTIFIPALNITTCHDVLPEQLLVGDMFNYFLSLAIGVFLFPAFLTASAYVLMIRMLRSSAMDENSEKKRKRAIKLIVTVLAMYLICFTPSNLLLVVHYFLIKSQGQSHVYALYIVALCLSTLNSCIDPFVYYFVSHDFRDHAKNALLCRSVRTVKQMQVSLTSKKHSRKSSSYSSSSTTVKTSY
The experiment in a line: In vitro human PAR-2 functional antagonist activity using calcium assays (Fluo4AM, FLIPR Tetra). The test is classed as cell-based. The settings on record: HEK-293 T cells stimulated by an EC80 of the 2-Furoyl-LIGRLO-NH2 peptide after 10 min incubation with compound; 20 concentrations, duplicate, two independent experiments. The method in brief: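 Antagonist activity was taken as the decrease in the calcium response to an EC80 of 2-Furoyl-LIGRLO-NH2, measured over 5 min. The agonist was added after a 10 min compound-alone step on the same plate. The HEK-293 T cells express PAR-2 endogenously and were loaded with 1 μM Fluo4AM. Signals were referenced to buffer and EC80-alone controls.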

In the case of `Cc1cc(NC2CCN(C(=O)c3ccc4c(-c5ccc(Cl)c(F)c5)cn(C(C)(C)C)c4n3)CC2)nc(C)c1C(=O)O` [Example 100, 6-((1-(1-(tert-butyl)-3-(4-chloro-3-fluorophenyl)-1H-pyrrolo[2,3-b]pyridine-6-carbonyl)piperidin-4-yl)amino)-2,4-dimethylnicotinic acid], the half-maximal inhibitory concentration (IC50) fell in the range of 20 to 10000 nM.

As for `CC(C)(C)n1cc(-c2ccc(Cl)c(F)c2)c2ccc(C(=O)N3[C@@H]4CC[C@H]3COC4)nc21` [Example 19, ((1R,5S)-3-oxa-8-azabicyclo[3.2.1]octan-8-yl)(1-(tertbutyl)-3-(4-chloro-3-fluorophenyl)-1H-pyrrolo[2,3-b]pyridin-6-yl)methanone], the IC50 was 20 to 10000 nM.

On to `Cc1cc(N2CCN(C(=O)c3ccc4c(-c5ccc(Cl)c(F)c5)cn(CC5(C)CCOCC5)c4n3)C(C)(C)C2)nc(C)c1C(=O)O` [Example 183, 6-(4-(3-(4-chloro-3-fluorophenyl)-1-((4-methyltetrahydro-2H-pyran-4-yl)methyl)-1H-pyrrolo[2,3-b]pyridine-6-carbonyl)-3,3-dimethylpiperazin-1-yl)-2,4-dimethyinicotinic acid], for which the IC50 is less than 20 nM.

Consider `Cc1cc(N2CCN(C(=O)c3ccc4c(-c5ccc(Cl)c(F)c5)cn(C(C)C)c4n3)C(C)(C)C2)nc(C)c1C(=O)O` [Example 97, 6-(4-(3-(4-chloro-3-fluorophenyl)-1-isopropyl-1H-pyrrolo[2,3-b]pyridine-6-carbonyl)-3,3-dimethylpiperazin-1-yl)-2,4-dimethyinicotinic acid], for which the IC50 is less than 20 nM.

For the molecule `Cc1cc(N(C)C2CCN(C(=O)c3ccc4c(-c5ccc(Cl)c(F)c5)cn(C(C)(C)C)c4n3)CC2C)nc(C)c1C(=O)O` (mixture of isomers) [Example 199, 6-((1-(1-(tert-butyl)-3-(4-chloro-3-fluorophenyl)-1H-pyrrolo[2,3-b]pyridine-6-carbonyl)-3-methylpiperidin-4-yl)(methyl)amino)-2,4-dimethylnicotinic acid], the IC50 fell in the range of 20 to 10000 nM.

`Cc1cc(N2CCN(C(=O)c3ccc4c(-c5ccc(C(F)(F)F)c(F)c5)cn(CC(C)C)c4n3)C(C)(C)C2)nc(C)c1C(=O)O` [Example 144, 6-(4-(3-(3-fluoro-4-(trifluoromethyl)phenyl)-1-isobutyl-1H-pyrrolo[2,3-b]pyridine-6-carbonyl)-3,3-dimethylpiperazin-1-yl)-2,4-dimethylnicotinic acid]: the IC50 is less than 20 nM.

`COC(=O)CC1CCN(C(=O)c2ccc3c(-c4ccc(Cl)c(F)c4)cn(CC(C)C)c3c2)CC1` [Example 203, methyl 2-(1-(3-(4-chloro-3-fluorophenyl)-1-isobutyl-1H-indole-6-carbonyl)piperidin-4-yl)acetate]: the IC50 lay in the range of 20 to 10000 nM.

In the case of `Cc1cc(N2CCN(C(=O)c3ccc4c(-c5ccc(C(F)(F)F)c(F)c5)cn(C(C)(C)C)c4n3)C(C)(C)C2)nc(C)c1C(=O)O` [Example 220, 6-(4-(1-(tert-butyl)-3-(3-fluoro-4-(trifluoromethyl)phenyl)-1H-pyrrolo[2,3-b]pyridine-6-carbonyl)-3,3-dimethylpiperazin-1-yl)-2,4-dimethylnicotinic acid], the IC50 is less than 20 nM.

Turning to `Cc1cc(N2CCN(C(=O)c3ccc4c(-c5ccc(Cl)c(F)c5)nn(C(C)(C)C)c4n3)C(C)(C)C2)nc(C)c1C(=O)O` [Example 87, 6-(4-(1-(tert-butyl)-3-(4-chloro-3-fluorophenyl)-1H-pyrazolo[3,4-b]pyridine-6-carbonyl)-3,3-dimethylpiperazin-1-yl)-2,4-dimethylnicotinic acid], the IC50 was in the range of 20 to 10000 nM.

As for `Cc1cc(N2CCN(C(=O)c3ccc4c(-c5ccc(Cl)c(F)c5)cn(C(C)(C)C)c4n3)[C@@H](C)C2)nc(C)c1C(=O)O` [Example 179, (S)-6-(4-(1-(tert-butyl)-3-(4-chloro-3-fluorophenyl)-1H-pyrrolo[2,3-b]pyridine-6-carbonyl)-3-methylpiperazin-1-yl)-2,4-dimethyinicotinic acid], the IC50 is 20 to 10000 nM.
